According to patent US20120196334A1, “LIGF-TYPE ENZYMES FOR BIOCONVERSION OF LIGNIN-DERIVED COMPOUNDS” (priority 2010, published 2012):

B1: ligE: Sphingomonas paucimobilis beta-etherase LigE, positive control polypeptide (protein)
chain: MARNNTITLYDLQLESGCTISPYVWRTKYALKHKGFDIDIVPGGFTGILERTGGRSERVPVIVDDGEWVLDSWVIAEYLDEKYPDRPMLFEGPTQKNLMKFLDNWLWSTAVGPWFRCYILDYHDLSLPQDRDYVRWSREQWFLGGQRLEDVQAGREDRLPLVPPTLEPFRRILAETKWLGGDQPNFADYSALAVFLWTASVARTPPLTEDDPLRDWLDRGFDLFDGLGRHPGMNPLFGLKLREGDPEPFVRQTGPAGAGGQALNKGPQTTKMPPRVAEKAD
B2: LigF: Sphingomonas paucimobilis beta-etherase LigF, positive control polypeptide (protein)
chain: MTLKLYSFGPGANSLKPLATLYEKGLEFEQVFVDPSKFEQHSDWFKKINPRGQVPALWHDGKVVTESTVICEYLEDVFPESGNSLRPADPFKRAEMRVWTKWVDEYFCWCVSTIGWAFGIKAIAQKMSDEEFEEHINKNVPIPEQQLKWRRARNGFPQEMLDEEFRKVGVSVARLEETLSKQDYLVDTGYSLADICNFAIANGLQRPGGFFGDYVNQEKTPGLCAWLDRINARPAIKEMFEKSKREDLLKRQNEKVA
B3: ligE1: Novosphingobium aromaticivorans putative beta-etherase, glutathione S-transferase-like polypeptide, GenBank ABD26841.1, expressed in E. coli (protein)
chain: MAANNTITFYDLALSTGATISPFVWATKYALKHKGFDLDVVPGGFTGILERTGGKTERLPAIVDDGEFVLDSWGIVEYLDAKYPDRPVLIPHESVAATLKALDNWFWNAAVGPWMFCFCQDYRDLSLPQDHEYVTHSREKMLGRKLEEVQAGREERLPKISAALEPLRAALAQHQWLGGSSPNYADYRIMGGILFTASVCKTPVLANDDPLRDWIERCLDLYGGLGRHPGLFPLFGLEQREGDPDLFNRAAGQGGIYKRNTGPESTRAETQRITEGMKK
B4: LigF2: Novosphingobium aromaticivorans putative beta-etherase, glutathione S-transferase-like polypeptide LigF-2 (protein)
chain: MALKYYHAEPLANSLKSMVPLKEKGLAYESIYVDLHKFEQHQPWFTAINPEGQVPVLDHDGTIITHTTVINEYLEDAFPDAQPADAPLRPRDPVGAARMRYWNKFIDEHVMNYVSMHGWHRMVGVIARNIASGDFEKLLESIPLPDQRKKWATARSGFSEADLANATAKIEYALDKVEKQLGETKWLAGDTYTLADINFYSHCGAMVERMFPEMEVARRAPRLCEWRDRVAARPAVAEALKSEDRTAPGLRVWSGEVR
B5: ABD26530.1: Novosphingobium aromaticivorans putative beta-etherase polypeptide LigF-1 (protein)
chain: MVIPLGEDNTIMLKLYSFGPAANSMKPLLTVFEKGLDVEKHRLDPAKFEHHTDWFKAINPRGQVPALVDGDKVVTESTVICEYLEDEYPTEVALRPADSFGKAQMRIWTKWVDEYFCWCVSTIGWHRYVGNMVKSLSDAEFEEKVKAIPVIEQQVKWRRAREGFPQDMLDEEMRKIAYSVRKLDDHLADHEWLVPGQYTLADICNFAIANGMQFGFAELVNKQDTPHLVRWIEQINERPAVKQMFAQVELEKLGPRE
B6: ABD27309.1: Novosphingobium aromaticivorans putative beta-etherase polypeptide LigF-3 (protein)
chain: MDEVSLYHWEPNANSGKPMLALMEKGVPFSSHYIDMLQFDQHKPEYLAINPQGTIPAMTHNGQVLTESTAIMEYVNDRFDGPDLMPADAQDRWRVRWWMKFMDQWLGPSFSMIGWSVFVGPMVRQRDPAELAAAIDRIPLPERRTAWRKAINGDFSESEMAESRRRVGLGIAKLEEELGKRPYVGSNQYSLADINIFNSTYSLPISQPDLAGKDRTPNIMRWLKRVYTREAVKKTWAMGKTDLAHRYGLIMAEIEG

Tested on: not listed separately
Test: in vitro biochemical assay for beta-etherase activity on fluorescent substrate MUAV (4MU formation)
Details: E. coli cell extracts expressing the protein; 0.1 mM MUAV substrate
Description: The model substrate synthesis 150 for use in the biochemical screening for selective activity can be outsourced through a contract research organization (CRO). The enzyme discovery effort can initially be focused on identifying potential beta-etherase candidate genes identified through bioinformatic methods. […] The fluorescent substrate α-O-(β-methylumbelliferyl) acetovanillone (MUAV), for example, can be used in in vitro assays to identify beta-etherase function (Acme Biosciences, Mt. View, Calif.). The formation of 4 methylumbelliferone (4MU) upon hydrolysis of the aryl ether bond can be monitored by fluorescence, for example, at λex=365 nm and λem=450 nm (or 460 nm).
The enzyme screening 155 is done to identify novel etherases 160. […] Expression of the beta-etherase genes can be done in 5 ml or 25 ml samples of the recombinant E. coli strains in LB medium using induction with IPTG. Following induction, and cell harvest, cell pellets can be lysed using the BPER (Invitrogen) cell lysis system. […] The formation of 4 methylumbelliferone (4MU) upon hydrolysis of the aryl ether bond in MUAV can be monitored by fluorescence at λex=365 nm and λem=460 nm, and can provide quantitative measurement of beta-etherase function. Cell extracts of E. coli transformed with the S. paucimobilis ligE and ligF genes can be the assay positive controls. Test or unknown samples can include, for example, E. coli strains expressing putative beta-etherase genes from N. aromaticovorans.
This example describes a method for gene expression in E. coli, as well as beta-etherase biochemical assays. Expression of known and putative beta-etherase genes was performed using 5 ml cultures of the recombinant E. coli strains described herein in Luria Broth medium by induction of gene expression using isopropylthiogalactoside (IPTG) to a final concentration of 0.1 mM. Following induction, and cell harvest, the cells were disrupted using either sonication or the BPER (Invitrogen) cell lysis system.
In vitro reactions were performed in a total volume of 200 ul and contained: 25 mM TrisHCl pH 7.5; 0.5 mM dithiothreitol; 1 mM glutathione; 0.05 mM or 0.1 mM MUAV; 10 ul of clarified cell extract used to initiate the reactions. Following incubation for 2.5 hours at room temperature, a 50 ul sample of the reactions was terminated using 150 uL of 300 mM glycine/NaOH buffer pH 9. The formation of 4 methylumbelliferone (4MU) upon hydrolysis of the aryl ether bond was monitored by the increase in fluorescence at λex=360 nm and λem=450 nm using a Spectramax UV/visible/fluorescent spectrophotometer.
The total protein concentrations of the cell lysates were determined using the BCA reagent system for protein quantification (Pierce).
Induction might be also performed using IPTG concentrations in the range of 0.01-1 mM. Cell disruption might be also performed using toluene permeabilization, French, pressure techniques, or using multiple freeze/thaw cycles in conjunction with lysozyme. Assay conditions might be varied to include TrisHCl at 10-150 mM concentrations and in the pH range of 6.5-8.5; 0-2 mM dithiothreitol; 0.05-2 mM glutathione; 0.01-5 mM MUAV substrate; 22-42° C. reaction temperatures. The biochemical assay might be performed as a fixed time point assay with reaction times ranging from 5 minutes-12 hours, or performed continuously without quenching with glycine/NaOH buffer to extract enzyme kinetic parameters.

**Q.** With B1 as the molecule, how does the “total activity (beta-etherase)” value read?
**A.** The value was 7 rfu/ug.

**Q.** Which “total activity (beta-etherase)” value does the source give for B2 here?
**A.** The value was 558 rfu/ug.

**Q.** Which “total activity (beta-etherase)” value does the source give for B3 here?
**A.** The value was 529 rfu/ug.

**Q.** Which “total activity (beta-etherase)” value does the source give for B4 here?
**A.** Its value is 1206 rfu/ug.

Same assay, conditions: MUAV substrate; compared with S. paucimobilis LigF

**Q.** With B4 as the molecule, how does the “efficiency relative to S. paucimobilis LigF protein” value read?
**A.** Its value is “approximately 2 fold”.

Same assay, conditions: MUAV substrate; compared with S. paucimobilis ligE

**Q.** With B3 as the molecule, how does the “efficiency relative to S. paucimobilis ligE beta-etherase” value read?
**A.** Its value is “approximately 75 fold”.

Same assay, conditions: recombinant polypeptide expressed in E. coli

**Q.** Which “beta-etherase activity on the MUAV substrate (in words)” value (“beta-etherase activity … (in words)” for short) does the source give for B5 here?
**A.** Its value is “beta-etherase activity”.

**Q.** With B6 as the molecule, how does the “beta-etherase activity … (in words)” value read?
**A.** The value was “beta-etherase activity”.

**Q.** For B3, which “beta-etherase activity … (in words)” value is on record?
**A.** The value was “beta-etherase activity”.

**Q.** With B4 as the molecule, how does the “beta-etherase activity … (in words)” value read?
**A.** Its value is “beta-etherase activity”.

Tested on: Escherichia coli
Test: not given
Details: benzaldehyde derivatives; stated as demonstrated; cited from earlier work

**Q.** With O=Cc1ccc(O)cc1O [2,4-dihydroxybenzaldehyde] as the molecule, how does the “antibacterial activity against Escherichia coli” value read?
**A.** The value was “antibacterial activity”.

**Q.** With O=Cc1c(O)cc(O)cc1O [2,4,6-trihydroxybenzaldehyde] as the molecule, how does the “antibacterial activity against Escherichia coli” value read?
**A.** The value was “antibacterial activity”.

**Q.** Which “antibacterial activity against Escherichia coli” value does the source give for O=Cc1ccccc1O [2-hydroxybenzaldehyde] here?
**A.** Its value is “antibacterial activity”.

**Q.** With COc1ccc(O)c(C=O)c1 [2-hydroxy-5-methoxybenzaldehyde] as the molecule, how does the “antibacterial activity against Escherichia coli” value read?
**A.** The value was “antibacterial activity”.

**Q.** With COc1cccc(C=O)c1O [2-hydroxy-3-methoxybenzaldehyde] as the molecule, how does the “antibacterial activity against Escherichia coli” value read?
**A.** The value was “antibacterial activity”.

**Q.** With O=Cc1ccc(O)c(O)c1O [2,3,4-trihydroxybenzaldehyde] as the molecule, how does the “antibacterial activity against Escherichia coli” value read?
**A.** Its value is “antibacterial activity”.

**Q.** Which “antibacterial activity against Escherichia coli” value does the source give for O=Cc1cc(O)ccc1O [2,5-dihydroxybenzaldehyde] here?
**A.** The value was “antibacterial activity”.

**Q.** With COc1cc(O)cc(OC)c1C=O [4-hydroxy-2,6-dimethoxybenzaldehyde] as the molecule, how does the “antibacterial activity against Escherichia coli” value read?
**A.** Its value is “antibacterial activity”.

**Q.** With O=Cc1cccc(O)c1O [2,3-dihydroxybenzaldehyde] as the molecule, how does the “antibacterial activity against Escherichia coli” value read?
**A.** The value was “antibacterial activity”.

Same assay, conditions: stated as known; cited from earlier work

**Q.** With COc1cc(C=O)ccc1O [vanillin] as the molecule, how does the “antimicrobial activity against Escherichia coli” value read?
**A.** The value was “antimicrobial activity”.

**Q.** With COc1cc(C=O)cc(OC)c1O [syringaldehyde] as the molecule, how does the “antimicrobial activity against Escherichia coli” value read?
**A.** Its value is “antimicrobial activity”.

**Q.** For O=Cc1ccc(CO)o1 [5-hydroxymethylfurfural], which “antimicrobial activity against Escherichia coli” value is on record?
**A.** Its value is “antimicrobial activity”.

**Q.** For O=Cc1ccco1 [furfural], which “antimicrobial activity against Escherichia coli” value is on record?
**A.** The value was “antimicrobial activity”.

**Q.** Which “antimicrobial activity against Escherichia coli” value does the source give for O=Cc1ccc(O)cc1 [4-hydroxybenzaldehyde] here?
**A.** Its value is “antimicrobial activity”.

Tested on: Saccharomyces cerevisiae
Test: not given
Details: stated as background; cited from earlier work

**Q.** Which “antifungal activities against the yeast Saccharomyces cerevisiae” value (shortened to “antifungal activities”) does the source give for O=C(O)C=Cc1ccccc1 [cinnamic acid] here?
**A.** Its value is “significant antifungal activities”.

**Q.** For COc1cc(C(=O)O)ccc1O [vanillic acid], which “antifungal activities” value is on record?
**A.** The value was “significant antifungal activities”.

**Q.** For O=C(O)/C=C/c1ccccc1O [o-coumaric acid], which “antifungal activities” value is on record?
**A.** The value was “significant antifungal activities”.

**Q.** Which “antifungal activities” value does the source give for O=C(O)/C=C/c1ccc(O)cc1 [p-coumaric acid] here?
**A.** Its value is “significant antifungal activities”.

**Q.** Which “antifungal activities” value does the source give for O=C(O)/C=C/c1cccc(O)c1 [m-coumaric acid] here?
**A.** Its value is “significant antifungal activities”.

**Q.** For COc1cc(CCC(C)=O)ccc1O [vanillylacetone], which “antifungal activities” value is on record?
**A.** The value was “significant antifungal activities”.

**Q.** Which “antifungal activities” value does the source give for COc1ccc(C=O)cc1OC [Veratraldehyde] here?
**A.** The value was “significant antifungal activities”.
